Experiment in all cases: NCI-60 cell line screen, 48 h
The test system of assay [1] is SK-OV-3 ovarian.
The subject of assay [2] is A498 renal.
In assay [3] the test system is HOP-62 NSCLC.
For assay [4], the system named is RXF 393 renal.
In assay [5] the test system is CCRF-CEM leukemia.
The subject of assay [6] is SF-268 CNS.
The test system of assay [7] is HS 578T breast.
Assay [8] deals with BT-549 breast.
Assay [9] has as its system NCI/ADR-RES ovarian.
Assay [10] concerns SK-MEL-5 melanoma.

Structures are written as SMILES.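 All cell lines were grown in 96-well plates and treated with compound for 48 hours. GI50: concentration for 50% inhibition of growth. Definition used: TGI = concentration required for complete inhibition of growth.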 Peptide text beside a SMILES is read from it. * marks the point of attachment. OSu = O=C1CCC(=O)N1O*; OBn = c1ccc(CO*)cc1; Bn = c1ccc(C*)cc1 A value given as a limit tells only on which side of the number the result lay.

Consider 33 compounds from PubChem BioAssay (NCI).

For the compound `O=Cc1cc(O)c(O)c(/C=N/n2c3ccccc3c3ccccc32)c1`, the TGI was found to be 21.1 µM in assay [1]; 49.8 µM in assay [2]; 28 µM in assay [3]; 23.5 µM in assay [4]; 9.87 µM in [5]; 20 µM in [6]. Besides, the TGI in [7] was over 100 µM; in [8], 12.4 µM.

With `O=C(c1ccccc1)n1[nH]c(=O)n(-c2ccc(Cl)cc2)c1=O`, the TGI in assay [9], in [10], in assay [1], in assay [3], in assay [4] and in assay [5] was over 100 µM throughout. In addition, the TGI in assay [6], in assay [7] and in assay [8] was over 100 µM in each case.

With `N#CI1OC(C(F)(F)F)(C(F)(F)F)c2ccccc21`, the TGI in [9] is 40.3 µM; in assay [10], 33.8 µM; in assay [1] it was over 100 µM; in assay [2], over 100 µM; in [3] it was over 100 µM; in assay [4] it was 32.4 µM. Moreover, the TGI in [5] was over 100 µM; in assay [6], 73.9 µM; in assay [8], 40.9 µM.

On to `CC(C)=CCC/C(C)=C/CC/C(C)=C/CSc1ccc(Cl)cc1C(=O)O`, for which the TGI was 44.9 µM in [10]; 31.1 µM in assay [1]; 38.7 µM in assay [2]; 28.1 µM in [3]; 44.6 µM in assay [4]; 48.9 µM in assay [5]. Moreover, the TGI in [6] turned out to be 32.7 µM; in [7], 49.7 µM; in assay [8] it was 37.5 µM.

Turning to `O=[N+]([O-])c1ccc(Cl)cc1N/N=C/c1cccs1`, the TGI in [9], in assay [10], in assay [1], in assay [3], in assay [4] and in assay [5] was over 100 µM each time. In addition, the TGI in [6], in assay [7] and in [8] was over 100 µM throughout.

As for `COC1=CCC2=C(CCN(C(=O)C3CCC3)C2Cc2ccc(OC)c(O)c2)C1` (stereo not drawn), the TGI in assay [9] is 41.4 µM; in assay [10] it was 73.3 µM; in [1], 83.5 µM; in assay [2] it was 84.5 µM; in assay [3], over 100 µM; in assay [4], 21.2 µM. The TGI in assay [5] is over 100 µM; in assay [6] it was over 100 µM; in assay [7] it was 66.6 µM.

As to `Cc1ccc(Nc2ccc(Nc3ccc(C)cc3S(=O)(=O)O)c3c2C(=O)c2ccccc2C3=O)c(S(=O)(=O)O)c1`, the TGI in assay [10], in assay [1], in [2], in [3], in [4] and in [5] was over 100 µM each time. This compound also showed a TGI in [6] of over 100 µM.

With `CCCC1C(C#N)(C#N)C(C#N)=C(N)C1(C)C(C)=O` (stereo not drawn), the TGI in [9], in assay [10], in assay [1], in assay [2], in [4] and in assay [5] was over 100 µM in each case. The TGI in [6] and in assay [7] was over 100 µM in each case.

On to `Cc1oc2c(C)c3oc(=O)cc(C)c3cc2c1CN`, for which the TGI in assay [1] was 79.2 µM; in assay [2], over 100 µM; in assay [3] it was over 100 µM; in assay [4], over 100 µM; in assay [5] it was over 100 µM; in assay [6] it was over 100 µM.

As to `COc1ccc(/C=C/C(c2cc(OC)c(OC)c(OC)c2)n2cncn2)cc1O` (stereo not drawn), the GI50 in [10] is 45.8 nM; in assay [2], 3130 nM; in assay [5], 32 nM; in [6], 59 nM; in assay [8] it was 71.2 nM. Also, the TGI in assay [10] was 35.4 µM; in assay [2], 9.09 µM; in assay [5] it was over 100 µM; in assay [6] it was over 100 µM; in assay [8], 37.1 µM.

For `Cc1[nH]c(=O)[nH]c(=O)c1C(=O)N(CCO)Cc1ccccc1`, the TGI is over 100 µM in [1]; over 100 µM in assay [2]; over 100 µM in assay [3]; 83.6 µM in [4]; over 100 µM in assay [5]; over 100 µM in assay [6]. Further, the TGI in assay [7] is 41.9 µM; in assay [8] it was over 100 µM.

For `NC(CNc1ccc(O)cc1)C(=O)O` (stereo not drawn), the TGI in [10], in assay [1], in assay [2], in assay [3], in [4] and in [5] was over 100 µM in each case. The compound further returned a TGI in [6] of over 100 µM.

In the case of `Cc1nn(-c2ccccc2)c2c1N=C(C(=O)O)CC(c1ccccc1)=N2`, the TGI in [9], in [10], in assay [1], in assay [3], in [6] and in assay [7] was over 10 µM throughout. The TGI in [8] is over 10 µM.

As to `CC(C)CC(NC(=O)C(N)CCC(=O)OCc1ccccc1)C(=O)NC(COCc1ccccc1)C(=O)NC(Cc1ccccc1)C(=O)ON1C(=O)CCC1=O` (stereo not drawn) (H-E(OBn)LS(Bn)F-OSu; configuration not given here), the TGI was 85.3 µM in [9]; 35.8 µM in [10]; 87.8 µM in assay [1]; 78.2 µM in [4]; 82.1 µM in [5]; over 100 µM in assay [6]. Also, the TGI in [7] is 76.1 µM.

For the compound `CCCN1C(=O)/C(=C(/O)C(=O)OCC)C(c2ccc(OC)c(OC)c2)C1=O` (stereo not drawn), the TGI in assay [9], in assay [10], in assay [1], in assay [2], in assay [3] and in [4] was over 100 µM throughout. Also, the TGI in assay [5] and in assay [6] was over 100 µM in each case.

Consider `O=C1C=C(NCCc2cc(Br)c(O)c(Br)c2)C(=O)c2[nH]cnc21`, for which the TGI in [9] was over 100 µM; in [10], 29 µM; in [1] it was over 100 µM; in [3], over 100 µM; in [4], 98 µM; in assay [5], 41.7 µM. The TGI in assay [6] was over 100 µM.

Take `COC(=O)C(N)CCCC(N)C(=O)NC(C)C(=O)NC(CCC(=O)NCCCNc1ccc([N+](=O)[O-])c2[nH]c3ccccc3c(=O)c12)C(N)=O` (stereo not drawn): the TGI worked out at 25 µM in assay [9]; 23.9 µM in assay [10]; 26.7 µM in [1]; 30.7 µM in assay [2]; 22.4 µM in assay [3]; 25.1 µM in assay [4]. Further, the TGI amounted to 14.3 µM in [5], 13.8 µM in [6] and 25.7 µM in assay [8].

With `CN1N(c2ccccc2)C(=O)C2=NC=C(C#N)C(=N)C21C` (stereo not drawn), the TGI in assay [9], in [10], in [1], in assay [2], in assay [4] and in assay [5] was over 100 µM each time. Besides, the TGI in assay [8] was over 100 µM.

Take `Clc1ccc(-c2nn3c(C45CC6CC(CC(C6)C4)C5)nnc3s2)cc1`: the TGI in [9], in [10], in assay [1], in assay [2], in [3] and in assay [4] was over 100 µM in each case. Further, the TGI in [5], in assay [6] and in assay [7] was over 100 µM each time.

`CC(CC(C)(C)[N+](C)(C)C)[N+](C)(C)C` (stereo not drawn): the TGI in assay [9], in [10], in [1], in [3], in [4] and in [5] was over 100 µM in each case. For the same compound, the TGI in assay [6] and in assay [8] was over 100 µM each time.

Turning to `C=C(COC(=O)C(C)C)[C@H]1Oc2ccc(C(C)=O)cc2[C@@H]1OC(=O)C(C)C`, the TGI in assay [10], in assay [1], in assay [3], in assay [4], in [5] and in assay [6] was over 100 µM in each case. Further, the TGI in [7] and in assay [8] was over 100 µM throughout.

For the compound `CCCCNCC(O)c1cc(-c2ccc(C(F)(F)F)cc2)nc(-c2ccc(C(F)(F)F)cc2)c1` (stereo not drawn), the values for the GI50 in assay [10], in assay [2] and in assay [6] were 1770 nM, 1380 nM and 1970 nM, respectively. Moreover, the results for the TGI in [10], in [2] and in assay [6] were 3.26 µM, 2.86 µM and 3.89 µM, respectively.

For the compound `C/C(=C/c1c(C)[nH]c(=O)[nH]c1=O)C(=O)O`, the TGI in [9] is over 1380 µM; in assay [10], over 1370 µM; in [1] it was over 1370 µM; in assay [2], over 1380 µM; in [3] it was over 1380 µM; in assay [4], over 1380 µM. For the same compound, the TGI in [5] and in assay [6] was over 1380 µM each time.

On to `C1=C[C@]2(CCC13OCCO3)COc1ccccc12`, for which the TGI was 96.4 µM in [9]; over 100 µM in [10]; over 100 µM in [1]; over 100 µM in assay [2]; over 100 µM in assay [3]; over 100 µM in assay [5].

On to `CC1CN=C(N(C)C(=O)Nc2ccc(Cl)c(Cl)c2)S1` (stereo not drawn), for which the TGI is 73.2 µM in assay [9]; 29.9 µM in assay [10]; over 100 µM in [1]; over 100 µM in assay [2]; over 100 µM in assay [3]; over 100 µM in [5]. For the same compound, the TGI in [6] and in assay [7] was over 100 µM in each case.

On to `CC(C)(Oc1ccc(C(=O)c2ccc(Cl)cc2)cc1Cl)C(=O)N1CCN(c2ccccc2)CC1`, for which the TGI in assay [10], in assay [1], in assay [2], in [3], in assay [5] and in assay [6] was over 100 µM in each case.

In the case of `COc1ccc(N2C(=O)C3c4[nH]c5ccccc5c4C4CCC(C(C)(C)C)CC4C3C2=O)cc1OC` (stereo not drawn), the TGI is over 100 µM in assay [10]; 45 µM in assay [1]; 41.4 µM in assay [2]; 34.8 µM in assay [3]; 29.7 µM in [4]; 98.5 µM in assay [5]. In addition, the TGI in [6] was 38.3 µM.

Turning to `COc1c(Cl)c(Cl)c(OC)c2c1C(=O)C=CC2=O`, the TGI in assay [10] is over 100 µM; in assay [1], over 100 µM; in assay [2] it was over 100 µM; in [4], 30.9 µM; in assay [5] it was 53.5 µM; in assay [6], 30.6 µM.

For the compound `Oc1ccccc1C=Nc1ccccc1N=Cc1ccccc1O`, the TGI in assay [10], in assay [1], in [3], in assay [5] and in assay [6] was over 100 µM throughout.

As to `CCc1cc2c(oc3c4ccccc4ccc23)c(=O)[nH]1`, the TGI in assay [1], in [4], in assay [5], in assay [6], in assay [7] and in assay [8] was over 10 µM throughout.

In the case of `c1csc(-c2nnc(C34CC5CC(CC(C5)C3)C4)o2)c1`, the TGI in [9] was 57 µM; in assay [10], 30.8 µM; in [1], over 100 µM; in [2], 43.9 µM; in assay [3] it was over 100 µM; in assay [4], 54.7 µM. Moreover, the TGI in [5] was 47.4 µM; in assay [6], over 100 µM; in assay [7] it was 74.6 µM.

In the case of `CCOC(=O)CN(Cc1ccccc1)Cc1c(C(=O)c2ccccc2)c2ccccc2n1C(=O)c1ccccc1`, the TGI in [10], in assay [1], in [2], in assay [3], in assay [5] and in [6] was over 100 µM in each case.

Regarding `COc1cc(C(CC(OC)OC)=C(C#N)C#N)cc(OC)c1OC`, the TGI in assay [10] is 49.2 µM; in assay [1], over 100 µM; in assay [2], 40 µM; in assay [4], over 100 µM; in assay [5], 59.1 µM; in assay [6] it was over 100 µM.
